Like-named read-outs stand apart in the source and are kept apart here.
How the values were obtained:
[1] = biological target: T1, androgen receptor (AR) splicing variant AR-v7 (Homo sapiens, UniProt P10275); assay: Degradation activity on androgen receptor splicing variant AR-v7 in 22RV1 cells (ELISA); assay type: cell-based; details: AR-v7 degradation in 22RV1 cells, 48 h, class symbols
T1 construct: The degradation activity of compounds on AR-v7 in 22RV1 cells; host or cells: 22RV1 cells
T1 sequence (P10275 1-644 isoform P10275-3): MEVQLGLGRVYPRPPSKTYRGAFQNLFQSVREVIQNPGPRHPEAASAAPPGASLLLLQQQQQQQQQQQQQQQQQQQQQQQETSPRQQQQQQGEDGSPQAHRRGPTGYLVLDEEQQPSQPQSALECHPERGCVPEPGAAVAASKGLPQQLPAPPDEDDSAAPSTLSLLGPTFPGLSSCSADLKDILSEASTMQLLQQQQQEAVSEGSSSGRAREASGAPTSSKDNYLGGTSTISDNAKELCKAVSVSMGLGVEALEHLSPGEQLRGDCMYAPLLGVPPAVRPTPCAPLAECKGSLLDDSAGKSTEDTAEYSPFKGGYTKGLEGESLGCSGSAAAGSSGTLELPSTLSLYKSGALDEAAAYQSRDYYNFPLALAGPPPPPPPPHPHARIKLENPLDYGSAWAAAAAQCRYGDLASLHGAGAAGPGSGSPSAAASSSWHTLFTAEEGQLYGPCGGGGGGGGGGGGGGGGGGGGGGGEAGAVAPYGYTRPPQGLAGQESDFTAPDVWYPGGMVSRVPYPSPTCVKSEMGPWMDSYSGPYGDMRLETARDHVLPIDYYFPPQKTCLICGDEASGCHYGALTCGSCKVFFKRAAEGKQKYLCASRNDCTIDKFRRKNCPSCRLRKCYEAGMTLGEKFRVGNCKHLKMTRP

[2] = Pharmacokinetics in mice (plasma exposure after oral administration); assay type: in vivo; details: mouse, ICR mice, oral (i.g.) 3 mg/kg, read-out: After oral administration of 3 mg/kg, mouse plasma exposure AUCinf
Experimental: • LC-20AD high performance liquid chromatography (SHIMADZU, Japan) • API4000 triple quadrupole mass spectrometer (Applied Biosystem, USA) • Phenix Winnolin Pharmacokinetic software (Version 6.3, Certara, USA) • High speed freezing centrifuge (Thermo Fisher Scientific) • Analytical balance (Sartorius, SECURA225D-ICN) • ICR mice (Chengdu Dossy Experimental Animals CO., LTD.)
A suitable amount of drug was accurately weighed, and then the medium (5% DMSO, 15% HS-15, 80% DSW) was added to prepare the solution at a concentration of 0.1 mg/ml (i.v.) and 0.3 mg/ml (i.g.).
18 healthy adult ICR mice were divided into two groups (9 mice for i.v. group; 9 mice for i.g. group), and administered by tail vein or by gavage after fasting overnight (free drinking water); using the satellite blood collection method, 3 animals were collected at each time point, and then 0.1 ml of blood obtained at different time points was anticoagulated with EDTA-K2, centrifuged at 4° C. for 5 min to separate the plasma, and stored at −80° C. for detection. The sampling time points after i.v. administration were 5 min, 15 min, 0.5 h, 1 h, 2 h, 4 h, 8 h, 12 h, and 24 h; while the sampling time points for i.g. group were before administration (0 h) as well as 0.5 h, 1 h, 2 h, 4 h, 6 h, 8 h, 12 h, and 24 h after administration. Then, the drug concentration in plasma was determined by LC/MS/MS.

22RV1 cells = details: Homo sapiens, 22Rv1, 144 h
[3] = read-out: 22RV1 IC50 (nM), 22RV1 cells, 6 days culture, CCK-8, OD 450 nm

DC50 [1] [nM] | AUC(0-inf) [2] [ng·h/mL] | IC50 (22RV1 cells; [3]) [nM] | Compound | IC50 (22RV1 cells; read-out: 22RV1 IC50 (nM)) [nM]
11 to 100 | 100 to 1000 |  | CC(C)(c1ccc(OCc2ccnc(N3CC4(CNC4)C3)n2)cc1)c1ccc(O[C@H]2C[C@H](Nc3ccc4c(c3)C(=O)N(C3CCC(=O)NC3=O)C4=O)C2)cc1 (stereo partly drawn) [Example 82, 5-(((1r,3r)-3-(4-(2-(4-((2-(2,6-diazaspiro[3.3]heptan-2-yl)pyrimidin-4-yl)methoxy)phenyl)propan-2-yl)phenoxy)cyclobutyl)amino)-2-(2,6-dioxopiperidin-3-yl)isoindolin-1,3-dione] | 
 | 100 to 1000 |  | CC(C)(c1ccc(OCc2ccnc(NCC3CNC3)n2)cc1)c1ccc(O[C@H]2C[C@@H](Nc3ccc4c(c3)C(=O)N(C3CCC(=O)NC3=O)C4=O)C2)cc1 (stereo partly drawn) [Example 406] | 
< 10 |  | 6 | CC(=O)c1ccc(Oc2ccc(C(C)(C)c3ccc(O[C@H]4C[C@@H](Nc5ccc6c(c5)C(=O)N(C5CCC(=O)NC5=O)C6=O)C4)cc3)cc2)nn1 (stereo partly drawn) [Example 523] | 
11 to 100 |  | 8 | CC(=O)c1ccc(Oc2ccc(C(C)(C)c3ccc(O[C@H]4C[C@@H](Nc5ccc6c(c5)C(=O)N(C5CCC(=O)NC5=O)C6=O)C4)cc3)cc2)cn1 (stereo partly drawn) [Example 525] | 
< 10 |  | 3 | CCC(CC)(c1ccc(Oc2ccc(-c3noc(C)n3)nn2)cc1)c1ccc(O[C@H]2C[C@H](Nc3ccc4c(c3)C(=O)N(C3CCC(=O)NC3=O)C4=O)C2)cc1 (stereo partly drawn) [Example 527] | 
< 10 |  | 2 | CC(=O)c1ncc(Oc2ccc(C3(c4ccc(O[C@H]5C[C@H](Nc6ccc7c(c6)C(=O)N(C6CCC(=O)NC6=O)C7=O)C5)cc4)CCCCC3)cc2)cn1 (stereo partly drawn) [Example 529] | 
11 to 100 |  | 35 | CC(C)(c1ccc(OCc2cnc(N3CC4(COC4)C3)nc2)cc1)c1ccc(O[C@H]2C[C@H](Nc3ccc4c(c3)C(=O)N(C3CCC(=O)NC3=O)C4=O)C2)cc1 (stereo partly drawn) [Example 535] | 
< 10 |  | 5 | Cc1cncc(Oc2ccc(C(C)(C)c3ccc(O[C@H]4C[C@H](Nc5ccc6c(c5)C(=O)N(C5CCC(=O)NC5=O)C6=O)C4)cc3)cc2)n1 (stereo partly drawn) [Example 536, 2-(2,6-dioxopiperidin-3-yl)-5-(((1r,3r)-3-(4-(4-((6-methylpyrazin-2-yl)oxy)phenyl)propan-2-yl)phenoxy)amino)isoindolin-1,3-dione] | 
< 10 |  | 8 | CC(C)(c1ccc(OCc2cncc(N3CC4(COC4)C3)n2)cc1)c1ccc(O[C@H]2C[C@H](Nc3ccc4c(c3)C(=O)N(C3CCC(=O)NC3=O)C4=O)C2)cc1 (stereo partly drawn) [Example 539] | 
< 10 |  | 9 | CC(C)(c1ccc(Oc2cccnc2)cc1)c1ccc(O[C@H]2C[C@H](Nc3ccc4c(c3)C(=O)N(C3CCC(=O)NC3=O)C4=O)C2)cc1 (stereo partly drawn) [Example 547] | 
< 10 |  | 8 | CC(C)(O)c1ncc(Oc2ccc(C(C)(C)c3ccc(O[C@H]4C[C@H](Nc5ccc6c(c5)C(=O)N(C5CCC(=O)NC5=O)C6=O)C4)cc3)cc2)cn1 (stereo partly drawn) [Example 548] | 
< 10 |  | 7 | CC(C)(c1ccc(Oc2cnc(CO)nc2)cc1)c1ccc(O[C@H]2C[C@H](Nc3ccc4c(c3)C(=O)N(C3CCC(=O)NC3=O)C4=O)C2)cc1 (stereo partly drawn) [Example 549] | 
11 to 100 |  | 12 | CNc1cnc(Oc2ccc(C(C)(C)c3ccc(O[C@H]4C[C@H](Nc5ccc6c(c5)C(=O)N(C5CCC(=O)NC5=O)C6=O)C4)cc3)cc2)cn1 (stereo partly drawn) [Example 551] | 
11 to 100 |  | 40 | CC(C)(c1ccc(OCc2ccnc(N3CC4(COC4)C3)n2)cc1)c1ccc(OCC2(Nc3ccc4c(c3)C(=O)N(C3CCC(=O)NC3=O)C4=O)CC2)cc1 (stereo not drawn) [Example 564, 5-((1-((4-(2-(4-((2-(2-oxa-6-azaspiro[3.3]heptan-6-yl)pyrimidin-4-yl)methoxy)phenyl)propan-2-yl)phenoxy)methyl)cyclopropyl)amino)-2-(2,6-dioxopiperidin-3-yl)isoindolin-1,3-dione] | 
< 10 |  | 5 | CC(C)(c1ccc(Oc2cc(N3CC4(COC4)C3)ncn2)cc1)c1ccc(O[C@H]2C[C@@H](Nc3ccc4c(c3)C(=O)N(C3CCC(=O)NC3=O)C4=O)C2)cc1 (stereo partly drawn) [Example 571] | 
< 10 |  | 16 | CC(C)(c1ccc(Oc2ncnc(N3CC4(COC4)C3)c2F)cc1)c1ccc(O[C@H]2C[C@H](Nc3ccc4c(c3)C(=O)N(C3CCC(=O)NC3=O)C4=O)C2)cc1 (stereo partly drawn) [Example 572] | 
< 10 |  | 5 | CC(C)(c1ccc(Oc2ncnc(N3CC4(COC4)C3)c2F)cc1)c1ccc(O[C@H]2C[C@@H](Nc3ccc4c(c3)C(=O)N(C3CCC(=O)NC3=O)C4=O)C2)cc1 (stereo partly drawn) [Example 574] | 
< 10 |  | 8 | CC(C)(c1ccc(Oc2cc(-n3nccn3)ncn2)cc1)c1ccc(O[C@H]2C[C@H](Nc3ccc4c(c3)C(=O)N(C3CCC(=O)NC3=O)C4=O)C2)cc1 (stereo partly drawn) [Example 578] | 
< 10 |  | 7 | CC(C)(c1ccc(Oc2cncc(-n3nccn3)n2)cc1)c1ccc(O[C@H]2C[C@H](Nc3ccc4c(c3)C(=O)N(C3CCC(=O)NC3=O)C4=O)C2)cc1 (stereo partly drawn) [Example 579] | 
< 10 |  | 14 | CC(C)(c1ccc(Oc2cncc(-n3ccnn3)n2)cc1)c1ccc(O[C@H]2C[C@H](Nc3ccc4c(c3)C(=O)N(C3CCC(=O)NC3=O)C4=O)C2)cc1 (stereo partly drawn) [Example 580] | 
11 to 100 |  | 10 | CC(C)(c1ccc(Oc2cnc(-n3nccn3)cn2)cc1)c1ccc(O[C@H]2C[C@H](Nc3ccc4c(c3)C(=O)N(C3CCC(=O)NC3=O)C4=O)C2)cc1 (stereo partly drawn) [Example 583] | 
< 10 |  | 7 | Cc1nnc(-c2cnc(Oc3ccc(C(C)(C)c4ccc(O[C@H]5C[C@H](Nc6ccc7c(c6)C(=O)N(C6CCC(=O)NC6=O)C7=O)C5)cc4)cc3)cn2)o1 (stereo partly drawn) [Example 589] | 
< 10 |  | 8 | CC(C)(c1ccc(Oc2nncs2)cc1)c1ccc(O[C@H]2C[C@H](Nc3ccc4c(c3)C(=O)N(C3CCC(=O)NC3=O)C4=O)C2)cc1 (stereo partly drawn) [Example 592] | 
< 10 |  | 4 | CC(O)c1cnc(Oc2ccc(C(C)(C)c3ccc(O[C@H]4C[C@H](Nc5ccc6c(c5)C(=O)N(C5CCC(=O)NC5=O)C6=O)C4)cc3)cc2)cn1 (stereo partly drawn) [Example 595] | 
< 10 |  | 10 | CC(=O)c1cnc(Oc2ccc(C(C)(C)c3ccc(O[C@H]4C[C@H](Nc5ccc6c(c5)C(=O)N(C5CCC(=O)NC5=O)C6=O)C4)cc3)cc2)cn1 (stereo partly drawn) [Example 596] | 
< 10 |  | 11 | Cc1nc(-c2cnc(Oc3ccc(C4(c5ccc(O[C@H]6C[C@H](Nc7ccc8c(c7)C(=O)N(C7CCC(=O)NC7=O)C8=O)C6)cc5)CCCC4)cc3)cn2)no1 (stereo partly drawn) [Example 601] | 

Compound | DC50 [1] [nM] | AUC(0-inf) [2] [ng·h/mL] | IC50 (22RV1 cells; [3]) [nM] | IC50 (22RV1 cells; read-out: 22RV1 IC50 (nM)) [nM]
CC(C)(c1ccc(OCc2ccnc(N3CC4(COC4)C3)n2)cc1)c1ccc(O[C@H]2C[C@@H](Nc3cc4c(cc3F)C(=O)N(C3CCC(=O)NC3=O)C4=O)C2)cc1 (stereo partly drawn) [Example 90, 5-(((1s,3s)-3-(4-(2-(4-((2-(2-oxa-6-azaspiro[3.3]heptane-6-yl)pyrimidin-4-yl)methoxy)phenyl)propan-2-yl)phenoxy)cyclobutyl)amino)-2-(2,6-dioxopiperidin-3-yl)-6-fluoroisoindolin-1,3-dione] | 11 to 100 | 1000 to 5000 |  | 
CCC(CC)(c1ccc(Oc2ccc(-c3noc(C)n3)nn2)cc1)c1ccc(O[C@H]2C[C@@H](Nc3ccc4c(c3)C(=O)N(C3CCC(=O)NC3=O)C4=O)C2)cc1 (stereo partly drawn) [Example 526] | < 10 |  |  | 5
Cc1nc(-c2ccc(Oc3ccc(C(C)(C)c4ccc(O[C@H]5C[C@H](Nc6ccc7c(c6)C(=O)N(C6CCC(=O)NC6=O)C7=O)C5)cc4)cc3)cn2)no1 (stereo partly drawn) [Example 581] | < 10 |  | 10 | 
